Measured values: ChEMBL document CHEMBL1201862, “PubChem BioAssay data set” (2004)
Active and inactive are the calls of the source.

Key:
[1] = target: T1, Nuclear receptor subfamily 0 group B member 1 (Homo sapiens, UniProt P51843); assay: Luminescence-based cell-based high throughput dose response assay for inhibitors of the orphan nuclear receptor subfamily 0, group B, member 1 (DAX1; NR0B1). [Related pubchem assays (depositor defined):AID504766, AID504790]; type: functional
T1 sequence (P51843 whole entry): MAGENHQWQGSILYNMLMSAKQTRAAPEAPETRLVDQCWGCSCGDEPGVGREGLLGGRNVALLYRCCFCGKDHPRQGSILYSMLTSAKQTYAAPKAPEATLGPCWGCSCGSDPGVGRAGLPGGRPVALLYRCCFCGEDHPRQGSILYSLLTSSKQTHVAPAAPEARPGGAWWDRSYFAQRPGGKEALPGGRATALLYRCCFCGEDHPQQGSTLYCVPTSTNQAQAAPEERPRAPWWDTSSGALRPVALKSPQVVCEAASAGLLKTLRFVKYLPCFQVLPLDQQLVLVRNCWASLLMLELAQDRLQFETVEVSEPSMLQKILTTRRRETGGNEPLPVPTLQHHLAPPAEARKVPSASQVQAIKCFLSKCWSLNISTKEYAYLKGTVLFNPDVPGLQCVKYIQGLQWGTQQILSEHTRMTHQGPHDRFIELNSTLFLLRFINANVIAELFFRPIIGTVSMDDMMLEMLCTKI

HEK293 [2] = assay: cells; type: functional, cell-based; details: Homo sapiens
[3] = reduction of Shn3 3'UTR-driven luciferase in osteoblasts – cell-based, Clone20 osteoblasts, firefly luciferase, cherry-picked, dose response (AID 624132); type: functional;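 further: firefly luciferase luminescence from reporter carrying the Shn3 3'UTR in osteoblasts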
HEK293 [4] = assay: EBV LMP1 TES2 canonical NF-kB signalling blockers – cell-based, HEK293, luciferase, cherry-pick, dose response (AID 588343); type: functional; details: Homo sapiens
[5] = loss of viability in HepG2 cells – cell-based, CellTiter-Glo, cherry-picked, cytotoxicity control for Shn3 inhibitor project, dose response (AID 624134); type: functional
[6] = target: Latent membrane protein 1 (Human herpesvirus 4 (strain B95-8), UniProt P03230); assay: LMP1 TES1 pathway selectivity over dsRED control – imaging, HEK293T, dual-color eGFP/dsRED, cherry-picks, selectivity assay for LMP1 NF-kB inhibitor project, dose response (AID 588398); type: functional, cell-based
Latent membrane protein 1, sequence (P03230 whole entry): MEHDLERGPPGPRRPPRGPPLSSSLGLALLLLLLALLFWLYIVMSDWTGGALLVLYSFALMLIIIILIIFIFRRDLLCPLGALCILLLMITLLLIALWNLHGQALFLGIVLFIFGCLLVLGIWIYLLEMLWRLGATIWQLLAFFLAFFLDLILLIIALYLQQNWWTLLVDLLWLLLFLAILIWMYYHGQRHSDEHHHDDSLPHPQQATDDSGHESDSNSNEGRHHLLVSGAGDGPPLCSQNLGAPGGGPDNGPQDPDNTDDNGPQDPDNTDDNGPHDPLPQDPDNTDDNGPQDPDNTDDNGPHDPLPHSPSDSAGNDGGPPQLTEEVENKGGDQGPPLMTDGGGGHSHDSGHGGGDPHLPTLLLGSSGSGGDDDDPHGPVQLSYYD

Trypsin = Trypsin (Sus scrofa, UniProt P00761); assay: trypsin protease activity blockade – biochemical, quenched peptide fluorescence, cherry-pick, selectivity assay for Rce1 protease inhibitor project, dose response (AID 488789)
Trypsin, sequence (P00761 whole entry): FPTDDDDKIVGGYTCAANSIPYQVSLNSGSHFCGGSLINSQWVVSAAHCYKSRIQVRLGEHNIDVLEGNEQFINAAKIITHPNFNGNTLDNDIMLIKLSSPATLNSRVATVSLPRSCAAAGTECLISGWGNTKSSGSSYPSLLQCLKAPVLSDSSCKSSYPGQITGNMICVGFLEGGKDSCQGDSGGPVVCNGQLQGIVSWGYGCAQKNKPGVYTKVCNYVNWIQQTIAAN

[7] = Luminescence Cell-Based Dose Retest to Confirm Inhibitors of Cancer Stem Cells. [Related pubchem assays (depositor defined):AID2717, AID2721]; type: functional; details: Homo sapiens
[8] = microbe, parasite or virus in culture; type: functional; details: Mycobacterium tuberculosis
CAAX prenyl protease 2 [9] = target: CAAX prenyl protease 2 (Homo sapiens, UniProt Q9Y256); assay: inhibition of Ras-converting CAAX protease Rce1 – biochemical, yeast membranes, quenched-peptide fluorescence, cherry-pick, dose response (AID 588849)
CAAX prenyl protease 2 (Homo sapiens, UniProt Q9Y256), sequence (Q9Y256 whole entry): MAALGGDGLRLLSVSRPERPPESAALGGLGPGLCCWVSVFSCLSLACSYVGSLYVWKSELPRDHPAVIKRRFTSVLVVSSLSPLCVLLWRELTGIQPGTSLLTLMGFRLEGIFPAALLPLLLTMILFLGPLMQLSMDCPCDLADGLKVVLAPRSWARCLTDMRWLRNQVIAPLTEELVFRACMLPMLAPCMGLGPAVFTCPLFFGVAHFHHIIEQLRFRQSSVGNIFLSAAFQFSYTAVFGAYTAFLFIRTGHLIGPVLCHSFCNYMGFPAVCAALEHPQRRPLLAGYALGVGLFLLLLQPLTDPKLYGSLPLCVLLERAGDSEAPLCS

Protein skinhead-1 = target: T2, Protein skinhead-1 (Caenorhabditis elegans, UniProt P34707); type: functional
T2 sequence (P34707 whole entry): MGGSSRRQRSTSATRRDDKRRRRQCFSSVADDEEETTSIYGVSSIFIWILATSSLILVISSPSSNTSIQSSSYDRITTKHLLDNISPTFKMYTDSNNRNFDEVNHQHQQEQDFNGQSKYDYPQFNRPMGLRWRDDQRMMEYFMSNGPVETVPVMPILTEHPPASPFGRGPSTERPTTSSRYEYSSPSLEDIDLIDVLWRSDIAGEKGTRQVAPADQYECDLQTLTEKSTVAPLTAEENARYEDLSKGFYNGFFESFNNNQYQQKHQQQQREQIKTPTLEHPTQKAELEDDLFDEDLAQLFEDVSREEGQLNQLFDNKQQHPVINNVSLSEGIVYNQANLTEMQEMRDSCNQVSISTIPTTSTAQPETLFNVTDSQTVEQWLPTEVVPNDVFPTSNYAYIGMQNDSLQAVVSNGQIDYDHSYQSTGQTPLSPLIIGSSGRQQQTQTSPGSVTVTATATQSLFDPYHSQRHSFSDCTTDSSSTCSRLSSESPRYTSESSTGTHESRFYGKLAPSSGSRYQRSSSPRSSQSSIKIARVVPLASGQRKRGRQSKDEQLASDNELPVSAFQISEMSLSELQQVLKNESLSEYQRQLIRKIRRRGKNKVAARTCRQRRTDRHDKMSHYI

CAAX prenyl protease 2 [10] = target: CAAX prenyl protease 2 (Saccharomyces cerevisiae S288c, UniProt Q03530); type: biochemical
CAAX prenyl protease 2 (Saccharomyces cerevisiae S288c, UniProt Q03530), sequence (Q03530 whole entry): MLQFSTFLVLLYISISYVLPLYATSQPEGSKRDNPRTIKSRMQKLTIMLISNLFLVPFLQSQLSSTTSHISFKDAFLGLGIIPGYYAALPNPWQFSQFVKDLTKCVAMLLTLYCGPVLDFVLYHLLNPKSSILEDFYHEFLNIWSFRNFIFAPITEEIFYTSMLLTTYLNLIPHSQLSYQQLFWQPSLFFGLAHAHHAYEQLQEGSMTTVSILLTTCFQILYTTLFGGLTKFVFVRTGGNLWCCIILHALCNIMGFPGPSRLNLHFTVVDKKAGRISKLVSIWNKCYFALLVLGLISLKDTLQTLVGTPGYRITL

[11] = viability of PTEN-deleted HCT116 cells – cell-based, HCT116 PTEN knockout, dose response (AID 1047); type: functional;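 further: HCT116 colon tumor cells with PTEN knocked out; cells exposed to compound for 60 hours before readout; potency for loss of cell viability measured by luminescence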
[12] = viability of HCT116 lacking mutant beta-catenin – cell-based, human colon tumor, dose response (AID 1045); type: functional;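 further: HCT116 colon tumor cells with beta catenin knocked out; cells exposed to compound for 60 hours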
[13] = target: Beta-2 adrenergic receptor (Homo sapiens, UniProt P07550); assay: ADRB2 activation measured by internalization – cell-based, FAP fluorogen, flow cytometry, cherry pick 1, dose response (AID 588763); type: functional
Beta-2 adrenergic receptor, sequence (P07550 whole entry): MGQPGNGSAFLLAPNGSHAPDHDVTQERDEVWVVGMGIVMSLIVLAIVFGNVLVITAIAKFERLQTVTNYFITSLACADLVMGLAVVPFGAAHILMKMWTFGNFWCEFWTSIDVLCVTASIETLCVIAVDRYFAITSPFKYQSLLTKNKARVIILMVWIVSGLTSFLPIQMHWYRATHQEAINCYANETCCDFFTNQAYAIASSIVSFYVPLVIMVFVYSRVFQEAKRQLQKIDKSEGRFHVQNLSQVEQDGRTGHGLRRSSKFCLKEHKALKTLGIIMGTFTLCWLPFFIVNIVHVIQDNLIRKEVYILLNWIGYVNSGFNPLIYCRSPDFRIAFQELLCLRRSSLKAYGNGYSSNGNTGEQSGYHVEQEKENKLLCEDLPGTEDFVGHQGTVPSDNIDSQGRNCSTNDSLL

CCc1ccc(S(=O)(=O)Nc2c(C)nc3ncnn3c2O)cc1
IC50 [1]: > 67.5 µM (inactive) | IC50 (HEK293 [2]): > 67.5 µM (inactive)

COc1ccc(S(=O)(=O)Cc2ccc(C(=O)NC3CC3)o2)cc1
IC50 [1]: > 67.6 µM (inactive) | IC50 (HEK293 [2]): > 67.6 µM (inactive)

CN1OC[C@@H]2CN[C@H](c3ccc(-c4cc5ccccc5o4)cc3)C[C@@H]21
AC50 [3]: < 0.26 µM (active) | AC50 (HEK293 [4]): 0.0503 µM (active) | AC50 [5]: > 70 µM (inactive) | AC50 [6]: 51.1 µM (active)

COc1ccc(CNC(=O)c2c(N)n(CCCN3CCOCC3)c3nc4ccccc4nc23)cc1
AC50 (Trypsin): 10.5 µM (active) | AC50 [7]: 6.56 µM (active) | CC50 [8]: 24.5 µM (active) | AC50 (CAAX prenyl protease 2 [9]): 23.9 µM (active) | IC50 (Protein skinhead-1): > 100 µM (inactive) | AC50 (CAAX prenyl protease 2 [10]): 22.9 µM (active) | EC50 [11]: 17.4 µM (active) | EC50 [12]: 15.3 µM (active)

Cc1ccc(C(=O)OCC(=O)Nc2nc(-c3ccccc3)cs2)cc1NC(=O)c1ccco1
EC50 [13]: 1.41 µM (active)
